Target: T1, rat mGlu4 (Rattus norvegicus, UniProt P31423)
T1 construct: expressed in transfected cells; host or cells: HEK293
Experiment: Agonist activity, [3H]phosphatidylinositol accumulation in HEK293 cells transfected with rat mGlu4 and Gqi9
Format: cell-based
Settings: for EC50: Table 2, n in brackets, read-out: mGlu4 EC50 μM (n); for mGlu4 agonist character (partial): Table 2, remark beside EC50
Method: Agonist activity of the compounds was tested on HEK293 cells transiently transfected with rat mGlu4 expressing plasmid pRKG4 and chimeric G-protein Gqi9 by electroporation, as described by Gomeza, J. et al, Mol. Pharmacol; 1996, 50, 923-930.
Cells were plated in 96-well culture plates and labeled overnight with [^3H]myoinositol. The day after, cells were washed three times with Krebs buffer, incubated for 10 min with LiCl 5 mM, and then incubated for 30 min in the absence (basal) or in the presence of the indicated compounds at 1 nM up to 1000 μM. The total amount of [^3H]phosphatidylinositol accumulated in the cells was determined after Dowex purification as previously by Goudet C, et al, Prod. Natl. Acad. Sci. USA 2004, 101, 378-383.
The response dosis curves were adjusted by using equatrier y=[(Ymax−ymin)/(1+(x/EC50)^n)]+ymin where EC50 is the concentration necessary for obtaining half of the maximal effect and n is Hill coefficient.

T1 sequence (P31423 33-912): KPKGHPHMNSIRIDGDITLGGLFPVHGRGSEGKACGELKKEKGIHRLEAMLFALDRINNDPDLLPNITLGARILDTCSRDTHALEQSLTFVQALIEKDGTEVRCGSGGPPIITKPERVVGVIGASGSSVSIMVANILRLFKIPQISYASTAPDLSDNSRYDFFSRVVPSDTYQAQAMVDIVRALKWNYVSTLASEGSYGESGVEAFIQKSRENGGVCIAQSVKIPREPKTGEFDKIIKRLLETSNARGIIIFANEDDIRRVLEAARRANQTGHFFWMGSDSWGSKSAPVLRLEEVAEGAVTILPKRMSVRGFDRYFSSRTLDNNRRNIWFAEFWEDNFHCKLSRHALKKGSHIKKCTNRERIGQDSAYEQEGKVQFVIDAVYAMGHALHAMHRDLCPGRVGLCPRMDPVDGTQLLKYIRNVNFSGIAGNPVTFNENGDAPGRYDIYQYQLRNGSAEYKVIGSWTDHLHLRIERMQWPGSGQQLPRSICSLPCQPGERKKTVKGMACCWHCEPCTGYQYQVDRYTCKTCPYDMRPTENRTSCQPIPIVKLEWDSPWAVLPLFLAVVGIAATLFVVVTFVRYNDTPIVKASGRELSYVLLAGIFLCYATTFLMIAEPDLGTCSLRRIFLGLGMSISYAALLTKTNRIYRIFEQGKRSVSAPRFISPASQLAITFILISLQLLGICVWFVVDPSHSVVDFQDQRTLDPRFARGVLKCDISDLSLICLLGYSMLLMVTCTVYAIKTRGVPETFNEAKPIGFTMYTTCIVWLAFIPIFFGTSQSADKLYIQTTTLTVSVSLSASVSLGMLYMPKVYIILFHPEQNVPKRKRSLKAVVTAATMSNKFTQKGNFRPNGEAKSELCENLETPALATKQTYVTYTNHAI

Structure (SMILES)	EC50 [µM]	other results
N[C@@H](CCP(=O)(O)C(O)C1CC1C(=O)O)C(=O)O (single isomer, unassigned) [CS158]	5.1	
N[C@@H](CCP(=O)(O)C(O)C1CC1C(=O)O)C(=O)O (single isomer, unassigned) [CS159]	12.9	mGlu4 agonist character (partial): partial
N[C@@H](CCP(=O)(O)CCC(=O)O)C(=O)O [Compound 7, (3S)-3-[((3-Amino-3-carboxy)propyl)(hydroxy)phosphinyl]propanoic Acid]	6.4	
NC(CCP(=O)(O)C(CC(=O)O)C(=O)O)C(=O)O (stereo not shown) [Compound 11]	59	
NC(CP(=O)(O)CCC(=O)O)C(=O)O (stereo not shown) [Compound 14]		mGlu4 activity at 100 μM: inactive at 100 μM (1) . . .
N[C@@H](CCP(=O)(O)C(CC(=O)O)CC(=O)O)C(=O)O [Compound 16, (3S)-3-[(((3-amino-3-carboxy)propyl)(hydroxy)phosphinyl)-methyl]pentane-1,5-dioic Acid]		mGlu4 % max at 100 μM: 10% max at 100 μM (1)
N[C@@H](CCP(=O)(O)CC(CC(=O)O)C(=O)O)C(=O)O (stereo partly drawn) [Compound 19, (3S)-2-[(((3-amino-3-carboxy)propyl)(hydroxy)phosphinyl)-methyl]butane-1,4-dioic Acid]	28.7	
N[C@@H](CCP(=O)(O)C(O)c1ccccc1C(=O)O)C(=O)O (stereo partly drawn) [Compound 22, (3S)-2-[(((3-amino-3-carboxy)propyl)(hydroxy)phosphinyl)-hydroxymethyl]benzoic Acid]		mGlu4 activity at 100 μM: inactive at 100 μM
N[C@@H](CCP(=O)(O)C(O)c1cccc(C(=O)O)c1)C(=O)O (stereo partly drawn) [Compound 24, (3S)-3-[(((3-amino-3-carboxy)propyl)(hydroxy)phosphinyl)-hydroxymethyl]benzoic Acid]	20.8	
N[C@@H](CCP(=O)(O)CC(=O)O)C(=O)O [Compound 26, (3S)-2-[((3-amino-3-carboxy)propyl)(hydroxy)phosphinyl]ethanoic Acid]	3.8	
N[C@@H](CCP(=O)(O)C(CC(=O)O)C(F)(F)F)C(=O)O (stereo partly drawn) [Compound 28, (3S)-3-[((3-amino-3-carboxy)propyl)(hydroxy)phosphinyl]-3-trifluoromethylpropanoic Acid]		mGlu4 % max at 100 μM: 60% max at 100 μM (1)
C/C(=C\C(=O)O)C(O)P(=O)(O)CC[C@H](N)C(=O)O (stereo partly drawn) [Compound 31, (3S)-4-[((3-amino-3-carboxy)propyl)(hydroxy)phosphinyl]-4-hydroxy-3-methyl-2-butenoic Acid]		mGlu4 activity at 100 μM: inactive at 100 μM (1)
N[C@@H](CCP(=O)(O)C1COC(=O)C1)C(=O)O (stereo partly drawn) [Compound 36, (3S)-4-[((3-amino-3-carboxy)propyl)(hydroxy)phosphinyl]furanone]	11.5	mGlu4 agonist character (partial): partial
N[C@@H](CCP(=O)(O)C(O)c1ccc(C(F)(F)F)c([N+](=O)[O-])c1)C(=O)O (stereo partly shown) [Compound 38]	0.28	
N[C@@H](CCP(=O)(O)C(O)c1ccc(C(=O)O)cc1)C(=O)O (stereo partly drawn) [Compound 40, (3S)-4-[(((3-amino-3-carboxy)propyl)(hydroxy)phosphinyl)-hydroxymethyl]benzoic Acid]	31.8	
N[C@@H](CCP(=O)(O)CCP(=O)(O)O)C(=O)O [Compound 42, (3S)-3-[((3-Amino-3-carboxy)propyl)(hydroxy)phosphinyl]ethylphosphonate]		mGlu4 % max at 100 μM: 40% max at 100 μM (1)
N[C@@H](CCP(=O)(O)C(CC(=O)O)CP(=O)(O)O)C(=O)O (stereo partly shown) [Compound 44]		mGlu4 % max at 100 μM: 33% max at 100 μM (1)
N[C@@H](CCP(=O)(O)Cc1cccc(C(=O)O)c1)C(=O)O [Compound 46, (3S)-3-[(((3-amino-3-carboxy)propyl)(hydroxy)phosphinyl)-methyl]benzoic Acid]		mGlu4 % max at 100 μM: 33% max at 100 μM (1)
N[C@@H](CCP(=O)(O)CCCC(=O)O)C(=O)O [Compound 48, (3S)-4-[((3-Amino-3-carboxy)propyl)(hydroxy)phosphinyl]butanoic Acid]		mGlu4 % max at 100 μM: 80% max at 100 μM (1)
N[C@@H](CCP(=O)(O)C(O)c1ccc(F)c([N+](=O)[O-])c1)C(=O)O (stereo partly shown) [Compound 50]	1.02	
Cc1ccc(C(O)P(=O)(O)CC[C@H](N)C(=O)O)cc1[N+](=O)[O-] (stereo partly shown) [Compound 52]	1.69	

Structure (SMILES)	EC50 [µM]	other results
N[C@@H](CCP(=O)(O)C(O)c1ccc(C(F)(F)F)cc1)C(=O)O (stereo partly shown) [Compound 54]	22.2	
N[C@@H](CCP(=O)(O)C(O)c1cccc([N+](=O)[O-])c1)C(=O)O (stereo partly drawn) [Compound 56, (3S)-3-[(((3-amino-3-carboxy)propyl)(hydroxy)phosphinyl)-hydroxymethyl] 3-nitrobenzene]	0.63	
COc1ccc(C(O)P(=O)(O)CC[C@H](N)C(=O)O)cc1[N+](=O)[O-] (stereo partly drawn) [Compound 58, (3S)-3-[(((3-amino-3-carboxy)propyl)(hydroxy)phosphinyl)-hydroxymethyl] 3-nitro-4-methoxybenzene]	2.89	
NC(CCP(=O)(O)CCCCC(=O)O)C(=O)O (stereo not shown) [Compound 60, 5-[((3-Amino-3-carboxy)propyl)(hydroxy)phosphinyl]pentanoic Acid]		mGlu4 activity at 100 μM: inactive at 100 μM (1)
N[C@@H](CCP(=O)(O)C(O)c1ccc(O)c([N+](=O)[O-])c1)C(=O)O (stereo partly drawn) [Compound 62, (3S)-3-[(((3-amino-3-carboxy)propyl)(hydroxy)phosphinyl)-hydroxymethyl]-6-hydroxy-1-nitrobenzene]	2	
COc1cc(C(O)P(=O)(O)CC[C@H](N)C(=O)O)cc([N+](=O)[O-])c1O (stereo partly drawn) [Compound 64, (3S)-3-[(((3-amino-3-carboxy)propyl)(hydroxy)phosphinyl)-hydroxymethyl]-5-methoxy-6-hydroxy-1-nitrobenzene]	1.5	
N[C@@H](CCP(=O)(O)C(O)c1ccc(Cl)c([N+](=O)[O-])c1)C(=O)O (stereo partly drawn) [Compound 66, (3S)-3-[(((3-amino-3-carboxy)propyl)(hydroxy)phosphinyl)-hydroxymethyl]-6-chloro-1-nitrobenzene]	2.74	
N[C@@H](CCP(=O)(O)C(O)c1ccc(N2CCOCC2)c([N+](=O)[O-])c1)C(=O)O (stereo partly drawn) [Compound 68, (3S)-3-[(((3-amino-3-carboxy)propyl)(hydroxy)phosphinyl)-hydroxymethyl]-6-morpholino-1-nitro benzene]	> 100	
N[C@@H](CCP(=O)(O)C(O)c1ccc([N+](=O)[O-])cc1[N+](=O)[O-])C(=O)O (stereo partly drawn) [Compound 70, (3S)-4-[(((3-amino-3-carboy)propyl)(hydroxy)phosphinyl)-hydroxymethyl]-1,3-dinitrobenzene]	1	
N[C@@H](CCP(=O)(O)C(O)c1ccc([N+](=O)[O-])cc1)C(=O)O (stereo partly drawn) [Compound 72, (3S)-4-[(((3-amino-3-carboxy)propyl)(hydroxy)phosphinyl)-hydroxymethyl] nitrobenzene]	0.93	
CS(=O)(=O)c1ccc(C(O)P(=O)(O)CC[C@H](N)C(=O)O)cc1 (stereo partly drawn) [Compound 74, (3S)-4-[(((3-amino-3-carboxy)propyl)(hydroxy)phosphinyl)-hydroxymethyl]methylsulphonylbenzene]	> 100	
N[C@@H](CCP(=O)(O)C(O)c1cc([N+](=O)[O-])cc([N+](=O)[O-])c1O)C(=O)O (stereo partly drawn) [Compound 76, (3S)-3-[(((3-amino-3-carboxy)propyl)(hydroxy)phosphinyl)-hydroxymethyl] 2-hydroxy-1,5-dinitrobenzene]	2.3	
N[C@@H](CCP(=O)(O)C(O)c1cccc([N+](=O)[O-])c1O)C(=O)O (stereo partly drawn) [Compound 78, (3S)-3-[(((3-amino-3-carboxy)propyl)(hydroxy)phosphinyl)-hydroxymethyl] 2-hydroxy-nitrobenzene]	15.2	
N[C@@H](CCP(=O)(O)C(O)c1c(F)c(F)c(F)c(F)c1F)C(=O)O (stereo partly drawn) [Compound 80, (3S)-1-[(((3-amino-3-carboxy)propyl)(hydroxy)phosphinyl)-hydroxymethyl] 2,3,4,5,6-pentafluorobenzene]	5.19	
N[C@@H](CCP(=O)(O)C(O)c1cc([N+](=O)[O-])ccc1O)C(=O)O (stereo partly drawn) [Compound 82, (3S)-3-[(((3-amino-3-carboxy)propyl)(hydroxy)phosphinyl)-hydroxymethyl] 4-hydroxy-nitrobenzene]	1.17	
N[C@@H](CCP(=O)(O)C(O)c1ccc([N+](=O)[O-])o1)C(=O)O (stereo partly drawn) [Compound 84, (3S)-2-[(((3-amino-3-carboxy)propyl)(hydroxy)phosphinyl)-hydroxymethyl] 5-nitrofuran]	0.087	
N[C@@H](CCP(=O)(O)C(O)c1ccc([N+](=O)[O-])s1)C(=O)O (stereo partly drawn) [Compound 86, (3S)-2-[(((3-amino-3-carboxy)propyl)(hydroxy)phosphinyl)-hydroxymethyl] 5-nitrothiophene]	0.31	
N[C@@H](CCP(=O)(O)C(O)c1ccc(C(F)(F)F)o1)C(=O)O (stereo partly drawn) [Compound 88, (3S)-2-[(((3-amino-3-carboxy)propyl)(hydroxy)phosphinyl)-hydroxymethyl] 5-trifluoromethylfuran]	1.98	
N[C@@H](CCP(=O)(O)C(O)c1c([N+](=O)[O-])cccc1[N+](=O)[O-])C(=O)O (stereo partly drawn) [Compound 90, (3S)-2-[(((3-amino-3-carboxy)propyl)(hydroxy)phosphinyl)-hydroxymethyl] 1,3-dinitro benzene]	1.96	
N[C@@H](CCP(=O)(O)C(O)c1ccc([N+](=O)[O-])c(C(F)(F)F)c1)C(=O)O (stereo partly drawn) [Compound 94, (3S)-4-[(((3-amino-3-carboxy)propyl)(hydroxy)phosphinyl)-hydroxymethyl] 2-trifluoro methyl-1-nitrobenzene]	0.305	

Reference: patent US20090170813A1, “Hypophosphorous Acid Derivatives and their Therapeutical Applications” (priority 2005, published 2009)
